Assay in all cases: NCI anticancer screen, dose series, 48 h
The subject of assay [1] is SR.
Assay [2] relates to EKVX.
Assay [3] concerns MOLT-4.
The test system of assay [4] is MDA-MB-435.
Assay [5] concerns SNB-19.
Assay [6] relates to BT-549.
Assay [7] deals with DMS-114.
The test system of assay [8] is CCRF-CEM.
The test system of assay [9] is HL-60.
The subject of assay [10] is SF-539.
Assay [11] relates to SF-268.
The test system of assay [12] is UACC-62.
The subject of assay [13] is UO-31.
In assay [14] the test system is HCT-15.
For assay [15], the system named is OVCAR-3.
The test system of assay [16] is OVCAR-4.
Assay [17] concerns MDA-N.
Assay [18] deals with NCI/ADR-RES.
Assay [19] relates to Malme-3M.
In assay [20] the test system is COLO 205.

The text below walks through data of ChEMBL document CHEMBL1201862, “PubChem BioAssay data set” (2004).

Each structure is given as a SMILES string.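 How tested: cells in 96-well plates exposed to compound for 48 hours at five concentrations. GI50: concentration for 50% inhibition of growth.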 The source made the active and inactive calls. Rule as the data show it: active = GI50 up to about 1.1 µM and inactive = higher. Where only a bound is given, the exact number is not on record here.

Turning to `CC(C)Cc1ccc(C(C)CC2=CCC(CN(C)C)C2=O)cc1` (stereo not drawn), the GI50 in assay [1] was 1.86 µM (inactive); in [2] it was 16.4 µM (inactive); in assay [3] it was 2.34 µM (inactive); in assay [4] it was 8.13 µM (inactive); in assay [5] it was 15.3 µM (inactive); in assay [6] it was 19.5 µM (inactive). The GI50 in assay [7] is 4.27 µM (inactive); in assay [8] it was 2.4 µM (inactive); in assay [9] it was 1.96 µM (inactive); in assay [10], 16.3 µM (inactive); in assay [11], 14.9 µM (inactive); in [12], 10 µM (inactive). The GI50 in [13] is 16.4 µM (inactive); in [14], 2.64 µM; in assay [15] it was 11.2 µM (inactive); in [16], 20.4 µM (inactive); in assay [17], 5.75 µM (inactive); in assay [18], 16.9 µM (inactive). The results for the GI50 in [19] and in [20] were 6.15 µM (inactive) and 2.69 µM (inactive), respectively.
Take `O=C(CCN1CCCCC1)N1CCc2c([nH]c3ccccc23)C1c1cccnc1` (stereo not drawn): the GI50 in [1] was 41.5 µM (inactive); in [2], 52.7 µM (inactive); in assay [3], 47.1 µM (inactive); in assay [4] it was 35.5 µM (inactive); in [5] it was > 100 µM (inactive); in assay [6] it was > 61.8 µM (inactive). Also, the GI50 was 27.9 µM (inactive) in assay [7]; 57.4 µM (inactive) in assay [8]; 41.2 µM (inactive) in [9]; 61.4 µM (inactive) in assay [10]; 61.4 µM (inactive) in assay [11]; 20.7 µM (inactive) in [12]. Further, the GI50 was 38.3 µM (inactive) in assay [13]; 85.5 µM in assay [14]; > 100 µM (inactive) in assay [15]; > 91 µM (inactive) in [16]; 28.1 µM (inactive) in assay [17]; > 100 µM (inactive) in [18]. In addition, the GI50 is 20.8 µM (inactive) in assay [19] and 21.7 µM (inactive) in assay [20].
For the molecule `C/C(=N\NC(=S)NNC(=S)N(C)c1ccccc1)c1ccccn1`, the GI50 in assay [2] was 0.805 µM (active); in [3] it was 0.43 µM (active); in assay [4], 3.52 µM (inactive); in assay [5] it was 2.7 µM (inactive); in assay [6], 3.14 µM (inactive); in assay [7], 0.399 µM (active). In addition, the GI50 in assay [8] was 0.399 µM (active); in assay [9], 0.343 µM (active); in assay [10], 2.07 µM (inactive); in [11], 2.91 µM (inactive); in assay [13], 0.577 µM (active); in [14], 1.16 µM. In addition, the GI50 in assay [15] was 0.544 µM (active); in [16], 1.75 µM (inactive); in [17], 4.06 µM (inactive); in [18], 2.66 µM (inactive); in [19] it was 1.66 µM (inactive); in assay [20], 0.673 µM (active).
